In ChEMBL document CHEMBL3580564, “Semisynthetic Studies on and Biological Evaluation of N-Methyllaurotetanine Analogues as Ligands for 5-HT Receptors” (J Nat Prod, 2015):
pKi: −log10 of the molar value.

Key:
Homo sapiens [1] = species on record: Homo sapiens; experiment: Selectivity index, ratio of Ki for human recombinant 5-HT1A receptor to Ki for human recombinant 5-HT7 receptor
Homo sapiens [2] = species on record: Homo sapiens; experiment: Selectivity index, ratio of Ki for human recombinant 5-HT2A receptor to Ki for human recombinant 5-HT7 receptor
[3] = target: T1, 5-hydroxytryptamine receptor 1A (Homo sapiens) (UniProt P08908); experiment: Potency index, ratio of Ki for N-Methyllaurotetanine to Ki for test compound against human recombinant 5-HT1A receptor expressed in CHO cell membranes by radioligand binding assay
T1 sequence (whole entry): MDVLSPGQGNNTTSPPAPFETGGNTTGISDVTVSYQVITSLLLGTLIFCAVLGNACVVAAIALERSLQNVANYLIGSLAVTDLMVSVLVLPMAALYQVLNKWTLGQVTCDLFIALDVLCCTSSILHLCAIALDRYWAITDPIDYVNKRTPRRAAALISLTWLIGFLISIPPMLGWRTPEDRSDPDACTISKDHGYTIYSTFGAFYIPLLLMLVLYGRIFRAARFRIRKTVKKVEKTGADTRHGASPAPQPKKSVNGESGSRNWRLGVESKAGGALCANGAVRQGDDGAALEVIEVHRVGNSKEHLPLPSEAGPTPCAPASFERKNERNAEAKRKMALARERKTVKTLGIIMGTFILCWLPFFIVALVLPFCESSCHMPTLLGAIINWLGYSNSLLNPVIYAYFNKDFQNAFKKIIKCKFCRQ

[4] = target: 5-hydroxytryptamine receptor 7 (Homo sapiens, UniProt P34969); experiment: Displacement of [3H]LSD from human recombinant 5-HT7 receptor expressed in HEK cell membranes by radioligand binding assay; parameters: species or system HEK293
5-hydroxytryptamine receptor 7, sequence (P34969 whole entry): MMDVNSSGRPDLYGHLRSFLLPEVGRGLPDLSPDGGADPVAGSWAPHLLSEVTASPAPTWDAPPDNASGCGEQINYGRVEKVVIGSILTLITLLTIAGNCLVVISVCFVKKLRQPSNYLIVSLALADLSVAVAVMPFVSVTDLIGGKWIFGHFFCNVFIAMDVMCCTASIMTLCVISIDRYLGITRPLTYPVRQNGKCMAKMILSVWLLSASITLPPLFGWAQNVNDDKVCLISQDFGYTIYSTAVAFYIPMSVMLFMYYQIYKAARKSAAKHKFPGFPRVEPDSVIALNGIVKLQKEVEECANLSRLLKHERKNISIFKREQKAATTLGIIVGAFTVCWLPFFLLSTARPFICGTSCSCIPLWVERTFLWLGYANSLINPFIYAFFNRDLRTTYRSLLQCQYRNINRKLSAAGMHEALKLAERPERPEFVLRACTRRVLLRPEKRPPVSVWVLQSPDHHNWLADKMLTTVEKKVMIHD

[5] = target: T2, 5-hydroxytryptamine receptor 1A (Homo sapiens, UniProt P08908); experiment: Displacement of [3H]Way100635 from human recombinant 5-HT1A receptor expressed in CHO cell membranes by radioligand binding assay
T2 sequence (P08908 whole entry): T1 sequence (whole entry)

[6] = target: 5-hydroxytryptamine receptor 2A (Homo sapiens, UniProt P28223); experiment: Displacement of [3H]ketanserin from human recombinant 5-HT2A receptor expressed in HEKT cell membranes by radioligand binding assay; type: cell-based
5-hydroxytryptamine receptor 2A, sequence (P28223 whole entry): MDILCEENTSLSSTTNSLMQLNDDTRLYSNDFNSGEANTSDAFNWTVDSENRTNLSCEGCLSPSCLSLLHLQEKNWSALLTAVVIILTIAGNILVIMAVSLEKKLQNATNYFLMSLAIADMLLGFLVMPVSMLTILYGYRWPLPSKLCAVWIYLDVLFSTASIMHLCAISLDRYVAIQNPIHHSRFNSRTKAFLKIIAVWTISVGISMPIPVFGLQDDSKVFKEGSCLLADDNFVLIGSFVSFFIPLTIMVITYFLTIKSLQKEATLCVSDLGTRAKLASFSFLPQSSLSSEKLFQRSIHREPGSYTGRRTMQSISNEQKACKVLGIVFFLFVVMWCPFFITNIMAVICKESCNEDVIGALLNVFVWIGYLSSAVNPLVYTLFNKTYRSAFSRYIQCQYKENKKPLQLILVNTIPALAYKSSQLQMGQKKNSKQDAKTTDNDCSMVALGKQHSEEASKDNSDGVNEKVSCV

Ratio Ki [3]	Structure (SMILES)	Ratio Ki (Homo sapiens [1])	Ratio Ki (Homo sapiens [2])	pKi [4]	pKi [5]	pKi [6]
3	COc1cc2c(cc1OCc1ccccc1)C[C@H]1c3c(cc(OC)c(OC)c3-2)CCN1C	4	9	7.64	7.04	6.67
< 3	CCCCC(C)Oc1cc2c(cc1OC)-c1c(OC)c(OC)cc3c1[C@H](C2)N(C)CC3 (some centres undefined)	4	12	7.42	6.82	6.35
	C=CCOc1cc2c(cc1OC)-c1c(OC)c(OC)cc3c1[C@H](C2)N(C)CC3	18	18	7.70	6.44	6.42
	COc1cc2c(cc1OC(C)C)C[C@H]1c3c(cc(OC)c(OC)c3-2)CCN1C	20	27	7.55	6.25	6.12
3	COc1cc2c(cc1OCc1ccc(Br)cc1)C[C@H]1c3c(cc(OC)c(OC)c3-2)CCN1C	2	8	7.27	6.99	6.38
	CCCCOc1cc2c(cc1OC)-c1c(OC)c(OC)cc3c1[C@H](C2)N(C)CC3	10	18	7.82	6.82	6.57
	CCCCCCOc1cc2c(cc1OC)-c1c(OC)c(OC)cc3c1[C@H](C2)N(C)CC3	5	10	7.24	6.56	6.24

Structure (SMILES)	Ratio Ki [3]	Ratio Ki (Homo sapiens [1])	Ratio Ki (Homo sapiens [2])	pKi [4]	pKi [5]	pKi [6]
CCC(C)Oc1cc2c(cc1OC)-c1c(OC)c(OC)cc3c1[C@H](C2)N(C)CC3 (some centres undefined)	< 3	7	7	7.47	6.61	6.42
